# Data from US20050033056A1, “Hydroxylated indole derivatives and uses thereof” (priority 2001, published 2005).
# How the values were obtained:
# CYP2C19/2C8/2C9 = assay: CYP induction in primary human hepatocytes, Western immunoblotting: CYP2C19/2C8/2C9; format: cell-based; settings: 10 or 50 μM for 72 hours; hepatocytes from three donors
# Method: (§1) Upon receiving a primary culture of human hepatocytes in 6-well plates, the culture medium containing streptomycin/penicillin was refreshed (2 ml/well). […] The culture medium and testing compounds were replenished every 24 hours.
# (§2) At the end of the treatment, the cells were harvested into 1 mL of phosphate-buffered saline (PBS) after washing twice. The cells were precipitated by centrifugation, and were resuspended in PBS (approximately 50 μL).
# (§3) The membrane was blocked by 5% non-fat dried milk (NFDM) blotting buffer (PBS containing 0.05% Tween 20) at 4° C. overnight. […] The membrane was rinsed six times (10 minutes each time) with the blotting buffer, and exposed to 1:10,000 diluted secondary antibodies labeled with horseradish peroxidase for 1 hour at room temperature. After being extensively rinsed with the blotting buffer, the membrane was exposed to the substrate of peroxidase (enhanced chemiluminescence reagent). CYP proteins were detected by […] using an X-ray developer.
# CYP3A4/5 = assay: CYP induction in primary human hepatocytes, Western immunoblotting: CYP3A4/5; format: cell-based; settings: 10 or 50 μM for 72 hours; hepatocytes from three donors
# Method: as §1, §2, §3
# CYP2C19 = CYP2C19 (Homo sapiens, UniProt P33261); assay: Compound 1 metabolism / metabolite formation by recombinant CYP2C19; format: in vitro ADME; design: purchased Gentest Corp. (Woburn, Mass.); host or cells: insect cells (microsomal preparation)
# Sequence of CYP2C19 (P33261 whole entry): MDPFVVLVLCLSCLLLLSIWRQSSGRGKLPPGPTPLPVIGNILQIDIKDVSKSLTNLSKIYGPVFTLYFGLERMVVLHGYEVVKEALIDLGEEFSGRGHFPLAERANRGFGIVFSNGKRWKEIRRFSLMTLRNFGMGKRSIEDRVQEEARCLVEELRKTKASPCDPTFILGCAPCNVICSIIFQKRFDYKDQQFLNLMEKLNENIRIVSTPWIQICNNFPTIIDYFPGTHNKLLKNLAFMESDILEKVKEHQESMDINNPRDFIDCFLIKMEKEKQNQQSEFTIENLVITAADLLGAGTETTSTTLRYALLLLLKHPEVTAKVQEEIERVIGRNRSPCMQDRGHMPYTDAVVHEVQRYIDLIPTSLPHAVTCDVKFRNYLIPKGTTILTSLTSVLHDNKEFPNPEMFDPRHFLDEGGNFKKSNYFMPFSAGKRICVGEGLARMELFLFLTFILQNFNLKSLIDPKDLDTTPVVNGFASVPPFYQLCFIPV
# Method: The metabolism of Compound 1 was determined by the disappearance of Compound 1 or the appearance of Compound 1 metabolites in reaction mixtures as compared to respective controls. Compound 1 was incubated in the reconstituted in vitro reaction systems containing pooled human liver S9 fractions, microsomal preparations, or recombinant hepatic CYP forms, including CYP1A2, CYP2C9, CYP2C19, CYP2D6, CYP2E1, and CYP3A4. The reaction mixture (total volume of 250 μL) contained 0.5 mg of liver microsomal protein, 50 or 25 pmol of recombinant CYP, and Compound 1 (50-80 μM) in 50 mM Tris buffer containing 15 mM MgCl2 (pH 7.4). After incubating at 37° C. with gentle shaking for 1 minute, the reaction was initiated by adding 25 μL of NADPH solution (20 mg/mL), and was carried out for 1 hour. The reaction was terminated by quickly cooling the test tube on ice, followed by the addition of an equal volume of 100% methanol. The samples were centrifuged in a desktop centrifuge at 14,000 rpm for 5 minutes, and the supernatants were filtered through syringe filters (13 mm, 0.45 μm). The filtrates were subjected to analysis using LC/MS (ion trap) or LC/MS/MS.
# 1. LC/MS (LCQ ion trap mass spectrometer, Finnigan Corp., San Jose, Calif.): Hewlett Packard 1100 HPLC system (Waldbronn, Germany) consisted of a binary pump, an autosampler, a column compartment unit, and an online variable wavelength UV detector (VWD). The detector was monitored at 270 nm, which is the UVmax of Compound 1 predetermined by scanning between 225-400 nm using a photodiode array detector (PDA). The metabolites were separated on a Hewlett Packard Eclipse C18 column (150×2.1 mm). The mobile phases were 10 nmM ammonium acetate at pH 4.8 (A) and acetonitrile (B). The gradient (B) was 10% (0-6 minutes), 22% (12-22 minutes), 90% (25-30 minutes), and 10% (31 minutes and after). The flow rate was 0.25 mL/minute. Software Navigator (Version 1.2, Finnigan Corp.) was used to control the HPLC and MS and to acquire the data. The MS was operated at positive electrospray ionization (ESI) with 5.2 kV ionization potential and 220° C. heated capillary temperature. The product ion spectra were generated under 24V collision energy, which was optimized for the fragmentation of Compound 1.
# 2. LC/MS/MS (SCIEX API2000 triple quadrupole mass spectrometer, PE Biosystem, Foster City, Calif.): The same HPLC system described above was coupled with a tandem mass spectrometer. The metabolites were separated on a Sulpelco Discovery C18 column (150×2.1 mm), and the mobile phase described previously was run at 1.0 mL/min with a 1:10 split. The gradient (B) was 20% (0-6 minutes), 60% (14-18 minutes), 95% (20-24 minutes), and 20% (25 minutes and after). The operation of the HPLC and the MS/MS was controlled by MacChrom (Version 1.6, PE Biosystem). […]
smiles,measurement,setting,value
"CNC(=O)Cc1ccc2ccn(C3CCN(CCc4ccccc4F)CC3)c2c1 [Compound 1, N-methyl-[1-[1-(2-fluorophenethyl)piperidine-4-yl]-1H-indol-6-yl] acetamide]",expression of CYP2C19/2C8/2C9 (Western immunoblotting),CYP2C19/2C8/2C9,did not increase
same,expression of CYP3A4/5 (Western immunoblotting),CYP3A4/5,did not increase
same,metabolism of Compound 1 by CYP2C19 (in words),CYP2C19; approximately 50 μM of Compound 1,metabolized
same,Rel. Amount (%),"CYP2C19; recombinant CYP2C19, estimated by UV absorbance at 270 nm, metabolite formed or Compound 1 left after 1 hour with NADPH",42%
